Structures are written as SMILES. Where a name gives a salt, the structure may show the parent alone.

This assay addresses T1, human TRPC6 (Homo sapiens, UniProt Q9Y210).
T1 construct: expressed in transfected cells
T1 sequence (Q9Y210 1-931): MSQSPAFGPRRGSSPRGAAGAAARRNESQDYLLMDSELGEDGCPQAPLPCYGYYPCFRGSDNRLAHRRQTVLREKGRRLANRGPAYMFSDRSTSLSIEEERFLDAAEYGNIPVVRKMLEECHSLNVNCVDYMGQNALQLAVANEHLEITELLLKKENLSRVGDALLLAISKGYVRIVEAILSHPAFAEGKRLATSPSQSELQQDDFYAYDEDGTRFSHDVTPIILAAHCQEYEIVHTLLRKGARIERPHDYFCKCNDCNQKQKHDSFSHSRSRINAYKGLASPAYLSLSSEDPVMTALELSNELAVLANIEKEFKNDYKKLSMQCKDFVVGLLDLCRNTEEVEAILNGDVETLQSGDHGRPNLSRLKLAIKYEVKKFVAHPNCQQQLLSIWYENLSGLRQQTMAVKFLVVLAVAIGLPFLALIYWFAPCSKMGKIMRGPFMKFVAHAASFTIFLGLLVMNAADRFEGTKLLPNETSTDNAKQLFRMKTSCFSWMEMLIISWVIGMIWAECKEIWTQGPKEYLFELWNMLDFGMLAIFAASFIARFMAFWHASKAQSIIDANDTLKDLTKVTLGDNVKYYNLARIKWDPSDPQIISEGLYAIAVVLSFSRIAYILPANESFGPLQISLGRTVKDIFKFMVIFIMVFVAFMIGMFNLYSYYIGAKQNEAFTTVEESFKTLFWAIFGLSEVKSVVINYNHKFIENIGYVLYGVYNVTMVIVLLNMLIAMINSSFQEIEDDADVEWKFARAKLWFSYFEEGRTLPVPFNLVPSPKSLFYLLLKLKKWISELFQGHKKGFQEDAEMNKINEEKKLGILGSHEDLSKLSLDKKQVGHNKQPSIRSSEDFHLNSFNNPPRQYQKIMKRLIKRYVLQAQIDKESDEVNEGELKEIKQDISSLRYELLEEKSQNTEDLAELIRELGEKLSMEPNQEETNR
Description: TRPC6 calcium flux assay (FLIPR, OAG-stimulated calcium influx). It is filed as cell-based. As to conditions: HEK293 cells stably transfected with human TRPC6, read-out: hTRPC6 Potency. The method, boiled down:
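HEK293 cells stably expressing human TRPC6, loaded with calcium dye 90–120 min at RT, then given compound for 25 min before OAG (50 uM final, 0.5% DMSO) in HEPES buffer pH 7.2 with 2 mM CaCl2. Background-subtracted FLIPR peak over 180 s normalized to OAG vs buffer; IC50 from dose plot.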
A general note: Calcium assays in cells follow changes in intracellular calcium, usually with a dye or a luminescent sensor.
Turning to `N[C@@H]1CN(c2nc3c(F)cc(F)cc3n2Cc2nnc(C(F)F)s2)CC[C@H]1F` [Example 557, (3R,4R)-1-(1-((5-(difluoromethyl)-1,3,4-thiadiazol-2-yl)methyl)-4,6-difluoro-1H-benzo[d]imidazol-2-yl)-4-fluoropiperidin-3-amine], the IC50 turned out to be 12.8 nM.
Under `COc1ccc(Cn2c(N3CC[C@@H](F)[C@H](N)C3)nc3ccccc32)nc1` [Example 425, (3R,4R)-4-fluoro-1-(1-((5-methoxypyridin-2-yl)methyl)-1H-benzo[d]imidazol-2-yl)piperidin-3-amine] stands 113 nM; under `N#Cc1ccc(Cn2c(N3CCC[C@H](N)C3)nc3ccccc32)c(Cl)c1` [Example 321, (S)-4-((2-(3-aminopiperidin-1-yl)-1H-benzo[d]imidazol-1-yl)methyl)-3-chlorobenzonitrile hydrochloride], 4.07 nM; under `CN(CC(F)(F)F)C(=O)Cn1c(N2CC[C@@H](F)[C@H](N)C2)nc2cc(Cl)ccc21` [Example 570, 2-(2-((3R,4R)-3-amino-4-fluoropiperidin-1-yl)-5-chloro-1H-benzo[d]imidazol-1-yl)-N-methyl-N-(2,2,2-trifluoroethyl)acetamide], 85.4 nM.
Under `N#C[C@H]1CCCN1C(=O)Cn1c(N2CC[C@@H](F)[C@H](N)C2)nc2cc(F)c(F)cc21` [Example 636, (R)-1-(2-(2-((3R,4R)-3-amino-4-fluoropiperidin-1-yl)-5,6-difluoro-1H-benzo[d]imidazol-1-yl)acetyl)pyrrolidine-2-carbonitrile] stands 326 nM; under `COc1cnc(Cn2c(N3CC[C@@H](F)[C@H](N)C3)nc3ccc(C#N)cc32)nc1` [Example 242, 2-((3R,4R)-3-amino-4-fluoropiperidin-1-yl)-1-((5-methoxypyrimidin-2-yl)methyl)-1H-benzo[d]imidazole-6-carbonitrile hydrochloride], 73.5 nM; under `C[C@H](c1ccc(Cl)cn1)n1c(N2CC[C@@H](F)[C@H](N)C2)nc2ccccc21` [Example 215, (3R,4R)-1-(1-((R)-1-(5-chloropyridin-2-yl)ethyl)-1H-benzo[d]imidazol-2-yl)-4-fluoropiperidin-3-amine hydrochloride], 593 nM.
The result for `N[C@@H]1CN(c2nc3cc(F)c(F)cc3n2CC(=O)N2CCC3CC32)CC[C@H]1F` (mixture of isomers) [Example 609, 2-(2-((3R,4R)-3-amino-4-fluoropiperidin-1-yl)-5,6-difluoro-1H-benzo[d]imidazol-1-yl)-1-(2-azabicyclo[3.1.0]hexan-2-yl)ethanone] reads 20.3 nM; that for `C[C@@H](c1ccc(Cl)cn1)n1c(N2CC[C@@H](F)[C@H](N)C2)nc2ccc(Cl)cc21` [Example 222, (3R,4R)-1-(6-chloro-1-((S)-1-(5-chloropyridin-2-yl)ethyl)-1H-benzo[d]imidazol-2-yl)-4-fluoropiperidin-3-amine hydrochloride], 2.04 nM; that for `C[C@H](c1ccc(C(F)(F)F)cc1)n1c(N2CC[C@@H](F)[C@H](N)C2)nc2cc(F)c(F)cc21` [Example 336, (3R,4R)-1-(5,6-difluoro-1-((1R)-1-(4-(trifluoromethyl)phenyl)ethyl)-1H-benzimidazol-2-yl)-4-fluoro-3-piperidinamine], over 3750 nM.
In the case of `C[C@H](c1ccc(C#N)cc1)n1c(N2CCC[C@@H](N)C2)nc2ccccc21` [Example 398, 4-((R)-1-(2-((R)-3-aminopiperidin-1-yl)-1H-benzo[d]imidazol-1-yl)ethyl)benzonitrile], the IC50 was determined as 87.4 nM.
The result for `C[C@H]1CCCN1C(=O)Cn1c(N2CC[C@@H](F)[C@H](N)C2)nc2ccc(F)cc21` [Example 682, 2-(2-((3R,4R)-3-amino-4-fluoropiperidin-1-yl)-6-fluoro-1H-benzo[d]imidazol-1-yl)-1-((S)-2-methylpyrrolidin-1-yl)ethan-1-one] reads 259 nM; that for `N[C@@H]1CN(c2nc3ccc(C(F)(F)F)cc3n2CC(=O)N2CCOCC2)CC[C@H]1F` [Example 459, 2-(2-((3R,4R)-3-amino-4-fluoropiperidin-1-yl)-6-(trifluoromethyl)-1H-benzo[d]imidazol-1-yl)-1-morpholinoethan-1-one], 16.4 nM.
For the compound `N#Cc1ccc(Cn2c(N3CC[C@@H](F)[C@H](N)C3)nc3cc(Cl)c(Cl)cc32)nc1` [Example 43, 6-((2-((3R,4R)-3-amino-4-fluoropiperidin-1-yl)-5,6-dichloro-1H-benzo[d]imidazol-1-yl)methyl)nicotinonitrile], the IC50 was 0.581 nM.
Under `N#Cc1cnc(Cn2c(N3CCC(F)(F)[C@H](N)C3)nc3ccccc32)cn1` [Example 199] stands 28.1 nM; under `N#Cc1ccc(Cn2c(N3CC[C@@H]4CCN[C@H]4C3)nc3ccccc32)nc1` [Example 23, 6-((2-((3aS,7aR)-hexahydro-1H-pyrrolo[2,3-c]pyridin-6(2H)-yl)-1H-benzo[d]imidazol-1-yl)methyl)nicotinonitrile], over 3750 nM; under `N#Cc1ccc(Cn2c(N3C[C@H]4CC[C@@H](N)[C@H]4C3)nc3ccccc32)nc1` [Example 76, 6-((2-((3aR,4R,6aS)-4-aminohexahydrocyclopenta[c]pyrrol-2(1H)-yl)-1H-benzo[d]imidazol-1-yl)methyl)nicotinonitrile hydrochloride], 971 nM.
Under `C[C@@H](C(=O)N(C)C)n1c(N2CC[C@@H](F)[C@H](N)C2)nc2cc(F)c(F)cc21` [Example 280, (2S)-2-(2-((3R,4R)-3-amino-4-fluoro-1-piperidinyl)-5,6-difluoro-1H-benzimidazol-1-yl)-N,N-dimethylpropanamide] stands 1.47 nM; under `N#Cc1ccc2nc(N3CCC(F)(F)[C@H](N)C3)n(Cc3ncc(Cl)cn3)c2c1` [Example 41, (R)-2-(3-amino-4,4-difluoropiperidin-1-yl)-1-((5-chloropyrimidin-2-yl)methyl)-1H-benzo[d]imidazole-6-carbonitrile], 18.4 nM; under `N[C@@H]1CN(c2nc3cc(F)c(F)cc3n2CC(=O)N2C[C@@H]3[C@H](C2)C3(F)F)CC[C@H]1F` [Example 623, 2-(2-((3R,4R)-3-amino-4-fluoropiperidin-1-yl)-5,6-difluoro-1H-benzo[d]imidazol-1-yl)-1-((1R,5S)-6,6-difluoro-3-azabicyclo[3.1.0]hexan-3-yl)ethanone], 89 nM.
`N[C@@H]1CN(c2nc3cc(F)c(F)cc3n2CC(=O)N2CCCC3COCCC32)CC[C@H]1F` (stereo partly drawn) [Example 639, 2-(2-((3R,4R)-3-amino-4-fluoropiperidin-1-yl)-5,6-difluoro-1H-benzo[d]imidazol-1-yl)-1-(octahydro-1H-pyrano[4,3-b]pyridin-1-yl)ethanone]: the IC50 amounted to 657 nM.
The result for `N#Cc1ccc(Cn2c(N3CCC[C@](N)(C(N)=O)C3)nc3ccccc32)nc1` [Example 103, (R)-3-amino-1-(1-((5-cyanopyridin-2-yl)methyl)-1H-benzo[d]imidazol-2-yl)piperidine-3-carboxamide] reads over 3750 nM.
Under `N#Cc1ccc(Cn2c(N3CC[C@@H](F)[C@H](N)C3)nc3c(F)cc(F)cc32)nc1` [Example 63, 6-((2-((3R,4R)-3-amino-4-fluoropiperidin-1-yl)-4,6-difluoro-1H-benzo[d]imidazol-1-yl)methyl)nicotinonitrile] stands 0.389 nM; under `CN(CC1CCS(=O)(=O)C1)C(=O)Cn1c(N2CC[C@@H](F)[C@H](N)C2)nc2cc(F)c(F)cc21` (mixture of isomers) [Example 652, 2-(2-((3R,4R)-3-amino-4-fluoropiperidin-1-yl)-5,6-difluoro-1H-benzo[d]imidazol-1-yl)-N-((1,1-dioxidotetrahydrothiophen-3-yl)methyl)-N-methylacetamide], over 3750 nM; under `CN(C)C(=O)Cn1c(N2CC[C@@H](F)[C@H](N)C2)nc2ccc(C(F)(F)F)cc21` [Example 563, 2-(2-((3R,4R)-3-amino-4-fluoropiperidin-1-yl)-6-(trifluoromethyl)-1H-benzo[d]imidazol-1-yl)-N,N-dimethylacetamide], 21.6 nM.
The result for `N#Cc1ccc2nc(N3CC[C@@H](F)[C@H](N)C3)n(Cc3ccc(C(F)(F)F)nc3)c2c1` [Example 243, 2-((3R,4R)-3-amino-4-fluoropiperidin-1-yl)-1-((6-(trifluoromethyl)pyridin-3-yl)methyl)-1H-benzo[d]imidazole-6-carbonitrile hydrochloride] reads 1970 nM.

(Values after patent US11332459B2 (TEIJIN PHARMA LIMITED, priority 2017, dated 2022).)
